Source: ChEMBL document CHEMBL1201862, “PubChem BioAssay data set” (2004)
Calls of active or inactive are those of the source.

Legend:
[1] = lung carcinoma cell viability loss – CellTiter-Glo luminescence, dry powder, set 17, dose response (AID 1117284); assay type: functional, cell-based; conditions: A549
[2] = target: T1, Sentrin-specific protease 8 (Homo sapiens, UniProt Q96LD8); assay type: functional
T1 sequence (Q96LD8 whole entry): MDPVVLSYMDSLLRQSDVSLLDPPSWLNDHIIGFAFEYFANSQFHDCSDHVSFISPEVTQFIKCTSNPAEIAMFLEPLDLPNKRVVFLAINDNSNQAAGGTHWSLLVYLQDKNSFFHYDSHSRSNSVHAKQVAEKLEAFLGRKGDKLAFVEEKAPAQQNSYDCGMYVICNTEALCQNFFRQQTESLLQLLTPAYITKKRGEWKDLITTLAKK

[3] = target: T2, Histone-lysine N-methyltransferase NSD2 (Homo sapiens, UniProt O96028); assay type: biochemical
T2 sequence (O96028 whole entry): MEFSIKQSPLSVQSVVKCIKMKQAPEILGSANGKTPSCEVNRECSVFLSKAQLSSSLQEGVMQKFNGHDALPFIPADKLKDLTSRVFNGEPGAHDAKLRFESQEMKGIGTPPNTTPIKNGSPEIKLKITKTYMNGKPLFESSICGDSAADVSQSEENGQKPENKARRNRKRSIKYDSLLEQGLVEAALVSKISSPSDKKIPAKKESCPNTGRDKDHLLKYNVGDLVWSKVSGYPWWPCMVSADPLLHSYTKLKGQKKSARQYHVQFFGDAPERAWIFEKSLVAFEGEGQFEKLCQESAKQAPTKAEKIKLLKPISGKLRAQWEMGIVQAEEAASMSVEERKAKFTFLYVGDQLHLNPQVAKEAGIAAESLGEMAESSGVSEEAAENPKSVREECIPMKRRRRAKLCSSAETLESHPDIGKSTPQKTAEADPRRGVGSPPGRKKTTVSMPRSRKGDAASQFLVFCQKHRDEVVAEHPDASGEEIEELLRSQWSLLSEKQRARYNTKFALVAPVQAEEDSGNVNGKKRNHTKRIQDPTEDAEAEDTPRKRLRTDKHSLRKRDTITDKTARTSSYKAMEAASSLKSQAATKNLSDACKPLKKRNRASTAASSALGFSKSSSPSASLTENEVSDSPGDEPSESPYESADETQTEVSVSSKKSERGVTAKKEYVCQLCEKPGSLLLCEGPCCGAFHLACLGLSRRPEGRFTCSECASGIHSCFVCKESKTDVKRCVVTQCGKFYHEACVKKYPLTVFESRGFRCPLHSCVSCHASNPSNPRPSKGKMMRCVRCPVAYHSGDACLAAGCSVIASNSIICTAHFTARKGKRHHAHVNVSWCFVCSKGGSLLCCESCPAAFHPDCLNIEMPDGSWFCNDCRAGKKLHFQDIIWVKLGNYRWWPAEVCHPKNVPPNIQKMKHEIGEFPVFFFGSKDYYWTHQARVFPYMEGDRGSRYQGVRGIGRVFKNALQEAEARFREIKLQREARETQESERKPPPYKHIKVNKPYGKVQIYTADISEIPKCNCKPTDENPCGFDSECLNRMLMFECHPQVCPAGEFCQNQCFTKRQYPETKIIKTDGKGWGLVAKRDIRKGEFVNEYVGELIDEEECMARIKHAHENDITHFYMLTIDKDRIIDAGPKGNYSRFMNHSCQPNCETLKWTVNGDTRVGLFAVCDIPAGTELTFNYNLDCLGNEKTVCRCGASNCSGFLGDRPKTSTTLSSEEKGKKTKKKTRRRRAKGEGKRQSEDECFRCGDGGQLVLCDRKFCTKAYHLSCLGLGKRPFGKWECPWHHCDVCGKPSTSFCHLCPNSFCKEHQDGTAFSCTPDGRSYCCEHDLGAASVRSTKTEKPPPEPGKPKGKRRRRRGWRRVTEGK

[4] = target: T1, Sentrin-specific protease 8; assay type: functional; remark: listed apart in the source
[5] = target: Serine/threonine-protein phosphatase PP1-alpha catalytic subunit (Homo sapiens, UniProt P62136); experiment: inhibition of protein phosphatase 1 activity – biochemical, fluorescence, dose response (AID 2394)
[6] = target: T3, Serine/threonine-protein phosphatase (Homo sapiens, UniProt Q9BPW0); experiment: inhibition of protein phosphatase 5 activity – biochemical, fluorescence, dose response (AID 2395)
T3 sequence (Q9BPW0 whole entry): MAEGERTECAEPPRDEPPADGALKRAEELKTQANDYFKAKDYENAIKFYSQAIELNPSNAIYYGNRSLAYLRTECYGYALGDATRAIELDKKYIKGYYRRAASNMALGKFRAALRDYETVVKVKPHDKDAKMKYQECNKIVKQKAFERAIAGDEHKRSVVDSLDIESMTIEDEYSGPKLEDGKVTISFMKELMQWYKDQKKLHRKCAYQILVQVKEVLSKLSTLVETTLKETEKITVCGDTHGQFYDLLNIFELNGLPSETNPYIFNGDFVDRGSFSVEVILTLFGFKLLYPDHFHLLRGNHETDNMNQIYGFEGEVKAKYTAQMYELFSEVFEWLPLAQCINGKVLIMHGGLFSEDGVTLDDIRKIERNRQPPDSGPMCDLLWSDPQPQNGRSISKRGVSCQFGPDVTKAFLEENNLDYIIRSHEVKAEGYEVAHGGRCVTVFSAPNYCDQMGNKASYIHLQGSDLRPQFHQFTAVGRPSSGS

[7] = target: Muscarinic acetylcholine receptor M1 (Rattus norvegicus, UniProt P08482); experiment: concentration-dependent potentiation of ACh at M1 – cell-based, calcium mobilization, CHO-K1, ACh EC20, dose response (AID 2425); assay type: functional
[8] = target: E3 ubiquitin-protein ligase Mdm2 (Homo sapiens, UniProt Q00987); experiment: MDM2-luc reporter signal enhancers, multi-concentration potency testing, MDM2 ubiquitin-protein ligase inhibitor program, whole-cell format, luminescence detection, 384-well microplate (AID 1394); assay type: functional;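 further: MDM2 E3 inhibitors raise luminescence so EC50 is for signal enhancement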
[9] = target: Mitogen-activated protein kinase 10 (Homo sapiens, UniProt P53779); experiment: Dose response biochemical screening assay for inhibitors of c-Jun N-Terminal Kinase 3 (JNK3). [Related pubchem assays: 746 ]
[10] = IC50 of insulin release inhibition, rat insulinoma INS-1E line, 5 mM glucose, cell-based (AID 1117331); assay type: functional
cells = assay type: functional, cell-based; conditions: INS-1E
[11] = target: Sphingosine 1-phosphate receptor 4 (Homo sapiens, UniProt O95977); experiment: Fluorescence dose response cell-based high throughput screening assay for antagonists of the Sphingosine 1-Phosphate Receptor 4 (S1P4). [Related pubchem assays: 1524 (Confirmation in triplicates.), 1510 (Primary screen.)]; assay type: functional
[12] = target: Sphingosine 1-phosphate receptor 1 (Homo sapiens, UniProt P21453); assay type: functional;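 further: Tango beta-arrestin reporter U2OS cells stimulated with S1P near its EC80; inhibitor potency meaning antagonism of receptor activation by the natural agonist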
Galanin receptor type 2 = Galanin receptor type 2 (Homo sapiens, UniProt O43603); experiment: Dose Response cell-based high-throughput screening assay to identify antagonists of galanin receptor 2 (GALR2). [Related pubchem assays: 828, 866 ]; assay type: functional
[13] = activation of miR-122 Renilla sensor silencing – cell-based, Huh7 psiCHECK-miR122, Renilla luciferase, cherry-picked, dose response (AID 651956); assay type: functional;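 further: huh7 hepatoma cells stably carrying a psiCHECK-2 miR-122 sensor plasmid; renilla luciferase signal reporting endogenous miR-122 activity after 48 h compound exposure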
[14] = target: T4, Microphthalmia-associated transcription factor (Homo sapiens, UniProt O75030); experiment: reducers of TRPM1 reporter luminescence, concentration series – cell-based, SK-MEL-5, cherry-picked, set 3, MITF inhibitor project, dose response (AID 493073); assay type: functional;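 further: SK-MEL-5 melanoma cells with luciferase driven by the MITF target TRPM1 promoter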
T4 sequence (O75030 whole entry): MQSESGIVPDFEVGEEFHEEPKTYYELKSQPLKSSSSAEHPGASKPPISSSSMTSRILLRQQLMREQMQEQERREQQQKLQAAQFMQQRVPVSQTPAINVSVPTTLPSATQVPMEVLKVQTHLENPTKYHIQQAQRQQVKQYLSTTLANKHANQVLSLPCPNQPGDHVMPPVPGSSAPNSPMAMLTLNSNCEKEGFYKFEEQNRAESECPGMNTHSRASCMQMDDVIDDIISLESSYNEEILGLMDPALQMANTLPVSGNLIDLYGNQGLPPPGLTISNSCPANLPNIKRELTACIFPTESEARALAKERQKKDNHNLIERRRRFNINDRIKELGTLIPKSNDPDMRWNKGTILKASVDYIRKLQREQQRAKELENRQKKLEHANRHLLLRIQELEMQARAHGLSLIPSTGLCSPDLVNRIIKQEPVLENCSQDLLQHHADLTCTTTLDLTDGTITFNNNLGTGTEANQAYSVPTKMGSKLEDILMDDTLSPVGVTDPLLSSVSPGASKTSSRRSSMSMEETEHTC

[15] = general mammalian cell viability loss – activator set, cherry-pick, cytotoxicity control for miR-122 modulator project, dose response (AID 720690); assay type: functional, cell-based;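 further: HEK293T human cells scored for general mammalian cytotoxicity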
Vero [16] = experiment: inhibition of WNV-induced cytopathic effect – cell-based, CPE readout (AID 1621); assay type: functional; conditions: Chlorocebus sabaeus
[17] = viability inhibitors of stage V gametocytes – luminescence, dose response (AID 1117278); assay type: functional, cell-based;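 further: gametocytes exposed to compound for 24 hours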
[18] = viability loss in human Jurkat cells – cell-based, luminescence, cytotoxicity control for P. falciparum gametocyte viability project, dose response (AID 1117277); assay type: functional;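 further: potency reflects loss of cellular ATP meaning fewer viable cells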
[19] = target: Induced myeloid leukemia cell differentiation protein Mcl-1 (Homo sapiens, UniProt Q07820); assay type: functional
[20] = viability loss in THP-1 monocytes – THP-1 cells, cytotoxicity control for Vif-APOBEC3G degradation inhibitor project, dose response (AID 1117359); assay type: functional; conditions: THP-1
Vero [21] = experiment: cells; assay type: functional, cell-based; conditions: Chlorocebus sabaeus
[22] = CellTiter-Glo luminescence survival assay, SW480 colon tumor line, concentration-response curve, half-maximal inhibitory concentration (AID 1117338); assay type: functional
[23] = HCT116 cell viability decrease, GSK3B pretreatment – CellTiter-Glo, IC50, dose response (AID 1117339); assay type: functional; conditions: HCT-116
[24] = RKO cell viability reduction, dose response, CellTiter-Glo luminescence (AID 1117322); assay type: functional
[25] = cytotoxicity toward HT-29 cells – cell-based, CellTiter-Glo luminescence, IC50, dose response (AID 1117330); assay type: functional
[26] = Reduced DLD-1 viability, concentration-response, CellTiter-Glo luminescence (AID 1117352); assay type: functional
[27] = SNU-C1 cell viability reduction, dose response, CellTiter-Glo luminescence (AID 1117323); assay type: functional, cell-based
[28] = cytotoxicity toward HCT116 cells – cell-based, CellTiter-Glo luminescence, IC50, dose response (AID 1117332); assay type: functional; conditions: HCT-116
Transthyretin = Transthyretin (Homo sapiens, UniProt P02766); experiment: Luminescence-based cell-based high throughput dose response assay to identify activators of Transthyretin (TTR) transcription.; assay type: functional

Chain of Muscarinic acetylcholine receptor M1 (P08482 whole entry): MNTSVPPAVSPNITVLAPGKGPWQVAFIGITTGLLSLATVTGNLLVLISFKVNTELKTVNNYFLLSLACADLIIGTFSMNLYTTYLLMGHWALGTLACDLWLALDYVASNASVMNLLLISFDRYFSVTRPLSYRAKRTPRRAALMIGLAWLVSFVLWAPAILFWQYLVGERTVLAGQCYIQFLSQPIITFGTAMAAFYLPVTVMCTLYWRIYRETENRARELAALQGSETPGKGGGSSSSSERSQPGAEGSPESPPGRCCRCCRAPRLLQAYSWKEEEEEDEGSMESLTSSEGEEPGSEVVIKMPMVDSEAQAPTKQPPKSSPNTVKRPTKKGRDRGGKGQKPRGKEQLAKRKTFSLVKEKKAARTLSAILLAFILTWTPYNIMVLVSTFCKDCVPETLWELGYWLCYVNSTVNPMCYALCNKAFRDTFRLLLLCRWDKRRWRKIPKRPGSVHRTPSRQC
Chain of E3 ubiquitin-protein ligase Mdm2 (Q00987 whole entry): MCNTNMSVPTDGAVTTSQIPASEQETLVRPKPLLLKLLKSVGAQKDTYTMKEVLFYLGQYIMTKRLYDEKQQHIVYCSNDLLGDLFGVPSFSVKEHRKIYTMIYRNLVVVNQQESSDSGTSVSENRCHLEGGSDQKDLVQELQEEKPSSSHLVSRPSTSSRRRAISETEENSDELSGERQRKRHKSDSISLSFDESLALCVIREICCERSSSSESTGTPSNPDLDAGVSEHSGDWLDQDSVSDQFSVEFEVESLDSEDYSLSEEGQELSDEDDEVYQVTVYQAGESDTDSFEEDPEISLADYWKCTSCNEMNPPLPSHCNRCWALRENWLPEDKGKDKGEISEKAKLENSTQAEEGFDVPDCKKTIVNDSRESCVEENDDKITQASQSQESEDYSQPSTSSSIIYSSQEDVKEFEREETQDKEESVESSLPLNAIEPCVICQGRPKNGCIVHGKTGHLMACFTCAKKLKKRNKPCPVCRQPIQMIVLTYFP
Chain of Mitogen-activated protein kinase 10 (P53779 whole entry): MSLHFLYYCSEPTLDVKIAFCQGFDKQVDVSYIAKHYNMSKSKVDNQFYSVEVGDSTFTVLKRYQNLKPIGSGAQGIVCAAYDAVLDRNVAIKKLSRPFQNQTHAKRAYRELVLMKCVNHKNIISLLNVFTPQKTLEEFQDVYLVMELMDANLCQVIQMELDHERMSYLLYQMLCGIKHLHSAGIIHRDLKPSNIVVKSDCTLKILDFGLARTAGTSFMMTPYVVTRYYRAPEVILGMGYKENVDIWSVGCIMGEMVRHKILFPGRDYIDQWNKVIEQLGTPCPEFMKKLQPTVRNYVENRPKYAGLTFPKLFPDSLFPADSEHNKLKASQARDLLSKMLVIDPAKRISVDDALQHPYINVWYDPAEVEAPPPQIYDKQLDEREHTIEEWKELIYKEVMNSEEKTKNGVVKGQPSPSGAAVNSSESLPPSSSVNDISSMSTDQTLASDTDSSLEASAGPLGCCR
Chain of Serine/threonine-protein phosphatase PP1-alpha catalytic subunit (P62136 whole entry): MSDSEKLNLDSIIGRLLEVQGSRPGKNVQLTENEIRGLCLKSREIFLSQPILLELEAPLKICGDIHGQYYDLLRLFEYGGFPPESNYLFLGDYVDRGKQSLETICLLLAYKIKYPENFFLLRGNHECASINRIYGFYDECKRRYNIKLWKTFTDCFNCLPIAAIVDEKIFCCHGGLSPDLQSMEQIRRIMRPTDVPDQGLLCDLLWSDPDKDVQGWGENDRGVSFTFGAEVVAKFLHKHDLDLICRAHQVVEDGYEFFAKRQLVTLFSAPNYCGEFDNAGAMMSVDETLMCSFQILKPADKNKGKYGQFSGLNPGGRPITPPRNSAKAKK
Chain of Galanin receptor type 2 (O43603 whole entry): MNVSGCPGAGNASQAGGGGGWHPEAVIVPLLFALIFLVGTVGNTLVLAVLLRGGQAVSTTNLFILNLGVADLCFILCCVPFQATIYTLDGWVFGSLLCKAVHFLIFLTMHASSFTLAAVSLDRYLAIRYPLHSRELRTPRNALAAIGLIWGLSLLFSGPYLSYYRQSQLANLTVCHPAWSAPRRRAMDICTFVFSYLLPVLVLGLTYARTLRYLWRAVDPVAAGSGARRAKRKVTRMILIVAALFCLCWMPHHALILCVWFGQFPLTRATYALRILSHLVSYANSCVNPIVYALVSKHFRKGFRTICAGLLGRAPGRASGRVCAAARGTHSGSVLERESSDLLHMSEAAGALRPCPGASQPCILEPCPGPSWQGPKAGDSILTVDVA
Chain of Sphingosine 1-phosphate receptor 1 (P21453 whole entry): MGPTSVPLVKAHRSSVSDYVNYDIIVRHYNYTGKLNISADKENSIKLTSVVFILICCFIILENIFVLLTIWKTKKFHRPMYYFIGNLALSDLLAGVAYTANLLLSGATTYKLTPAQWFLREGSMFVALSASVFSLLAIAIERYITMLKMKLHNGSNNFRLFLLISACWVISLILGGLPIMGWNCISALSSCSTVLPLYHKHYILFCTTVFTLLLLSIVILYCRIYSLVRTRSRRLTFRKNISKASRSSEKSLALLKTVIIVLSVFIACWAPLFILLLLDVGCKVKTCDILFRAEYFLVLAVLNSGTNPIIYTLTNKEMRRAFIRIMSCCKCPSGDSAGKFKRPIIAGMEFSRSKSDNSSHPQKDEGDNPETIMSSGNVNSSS
Chain of Sphingosine 1-phosphate receptor 4 (O95977 whole entry): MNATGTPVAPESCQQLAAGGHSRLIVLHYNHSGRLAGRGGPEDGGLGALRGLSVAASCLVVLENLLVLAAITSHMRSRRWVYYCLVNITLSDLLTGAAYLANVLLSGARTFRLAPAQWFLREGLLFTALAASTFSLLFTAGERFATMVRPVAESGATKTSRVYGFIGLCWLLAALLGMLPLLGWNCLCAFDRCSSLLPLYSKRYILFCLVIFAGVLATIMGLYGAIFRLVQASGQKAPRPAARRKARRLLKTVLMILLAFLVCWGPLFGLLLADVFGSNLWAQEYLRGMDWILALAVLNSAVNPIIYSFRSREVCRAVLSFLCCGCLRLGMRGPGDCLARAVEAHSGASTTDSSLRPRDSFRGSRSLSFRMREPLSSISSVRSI
Chain of Induced myeloid leukemia cell differentiation protein Mcl-1 (Q07820 whole entry): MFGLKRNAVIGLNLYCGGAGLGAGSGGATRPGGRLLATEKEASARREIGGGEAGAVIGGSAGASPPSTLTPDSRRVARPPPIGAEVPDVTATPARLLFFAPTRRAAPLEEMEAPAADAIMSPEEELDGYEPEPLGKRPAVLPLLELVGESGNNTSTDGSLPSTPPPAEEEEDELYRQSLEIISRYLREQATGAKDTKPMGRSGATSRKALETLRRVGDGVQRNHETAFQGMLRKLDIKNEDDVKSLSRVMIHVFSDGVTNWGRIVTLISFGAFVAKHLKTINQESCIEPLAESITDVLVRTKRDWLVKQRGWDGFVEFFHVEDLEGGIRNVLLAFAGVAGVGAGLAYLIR

## COc1cccc(-c2ccc(CN(C)C[C@@H]3Oc4cc(C#C[C@@H](C)O)ccc4S(=O)(=O)N([C@@H](C)CO)C[C@@H]3C)cc2)c1
[1]
  AC50: 32.6 µM (active)

## COc1ccc(-c2ccc3c(c2)O[C@@H](CN(C)Cc2ccc(-c4ccccc4)cc2)[C@@H](C)CN([C@@H](C)CO)S3(=O)=O)cc1
[1]
  AC50: 32.6 µM (active)

## CCOc1ccc(NC(S)=Nc2ccc3nsnc3c2)cc1
[2]
  IC50: 5.72 µM (active)
[3]
  AC50: 4.61 µM (active)
[4]
  IC50: 2.32 µM (active)
[5]
  IC50: > 67 µM (not active)
[6]
  IC50: 8.78 µM (active)

## Cn1cc(-c2ccc(CN3C(=O)C(=O)c4c(F)ccc(F)c43)c(F)c2)cn1
[7]
  EC50: 1.23 µM (active)

## Cc1cc(C(=O)Nc2cccc3ccccc23)n(-c2ccccc2)n1
[8]
  EC50: 25 µM (not active)

## O=C(c1cccc(F)c1)N1CCCC(C(=O)N2CCCC2)C1 (stereo not drawn)
[9]
  IC50: > 93.1 µM (not active)

## CN1CCc2cc(Cl)c(O)cc2[C@H]2c3ccccc3CC[C@@H]21 [ECOPIPAM]
[10]
  IC50: 15.4 µM (inactive)
cells
  IC50: > 33.3 µM (inactive)

## CCc1ccccc1NC(=O)CN(C)C(=O)Cn1ncc(Cl)c(Cl)c1=O
[11]
  IC50: 2.11 µM (active)
[12]
  IC50: 13.6 µM (not active)
Galanin receptor type 2
  IC50: 7.62 µM (active)
[13]
  AC50: 13.2 µM (active)
[14]
  AC50: 11 µM (active)
[15]
  AC50: 4.59 µM (active)

## CCN(CC)CCNC(=O)C1CCN(S(=O)(=O)c2c(C)noc2/C=C/c2ccccc2F)CC1
Vero [16]
  IC50: 25 µM (active)

## COc1ccc(N2C(=O)CSC23C(=O)N2CCCc4cccc3c42)cc1 (stereo not drawn)
[17]
  IC50: > 109 µM (inactive)
[18]
  IC50: > 83.3 µM (inactive)

## Cc1cc(C(=O)COC(=O)c2cc(O)c3ccccc3c2O)c(C)n1CC1CCCO1 (stereo not drawn)
[19]
  IC50: 3.09 µM (active)
[20]
  CC50: 25.9 µM (active)

## CN(C)CCNC(=O)c1cc2sc3ccccc3c2s1
Vero [21]
  IC50: 21 µM (active)
Vero [16]
  IC50: 24.5 µM (active)

## Cc1c(C)n(Cc2ccccc2)c2ccc(C(=O)OCCN(C)C)cc12 [INDOCATE]
[10]
  IC50: 3.84 µM (active)
[22]
  IC50: 8.78 µM (inactive)
[23]
  IC50: 5.47 µM (inactive)
cells
  IC50: 14.9 µM (inactive)
[24]
  IC50: 12.8 µM (inactive)
[25]
  IC50: > 6.67 µM (inactive)
[26]
  IC50: 11.3 µM (inactive)
[27]
  IC50: 12 µM (inactive)
[28]
  IC50: 11.8 µM (inactive)

## Cn1cc(-c2cc(F)c(CN3C(=O)C(=O)c4cccc(F)c43)c(F)c2)cn1
[7]
  EC50: 1.03 µM (active)

## Cc1cccc(NC(c2ccc(O)cc2)c2ccc3ccc(C)nc3c2O)n1 (stereo not drawn)
Transthyretin
  EC50: > 167 µM (inactive)

## c1csc(-c2cnc3ccccc3n2)c1
[9]
  IC50: 34 µM (not active)

## Cc1noc(C)c1COc1ccc(C(=O)NCc2ccccn2)cc1
[8]
  EC50: 2.96 µM (not active)
